Assay results reported in paper PMC10740425, “How Deep Learning in Antiviral Molecular Profiling Identified Anti-SARS-CoV-2 Inhibitors” (Biomedicines, 2023).

Test system: SARS-CoV-2 beta variant
Design: species or system BALB/C mice
Settings: mouse, in vivo, 5 mg/kg

Structure (SMILES)	lung viral titers compared to vehicle control
Cn1cnc([N+](=O)[O-])c1Sc1ncnc2nc[nH]c12 [azathioprine]	did not demonstrate a significant reduction in viral titers
O=P(O)(O)OC[C@H]1O[C@@H](n2cnc3c(S)ncnc32)[C@H](O)[C@@H]1O [thioinosinic acid]	approximately tenfold lower
